Results reported in patent US8637468B2, “Synthetic cholesterylamine-linker derivatives for agent delivery into cells” (The University of Kansas, priority 2009, dated 2014).
Where two headings read alike, the source gives them in different places.

Experiments:
[1] = system: plasma membranes of living Jurkat lymphocytes; assay: Saturation binding of fluorescent probes to living Jurkat lymphocytes (flow cytometry); parameters: species or system human; conditions: for Bmax (×10^5, 37° C.) / Kd / Bmax (×10^5, 16° C.): media containing 10% FBS, free cholesterol (200 μM, 10% DMSO) as competitor; for binding to mammalian cells (affinity/efficacy, in words): high concentrations of serum (10%)
Experimental: Jurkat lymphocytes (human acute leukemia, ATCC #TIB-152) were cultivated in Roswell Park Memorial Institute (RPMI) 1640 medium supplemented with Fetal Bovine Serum (FBS, 10%), penicillin (100 units/mL), and streptomycin (100 μg/mL) in a humidified 5% CO2 incubator at 37° C. Media used for cell culture and all wash steps contained antibiotics and 10% FBS unless otherwise noted.
(§1) Cells were suspended at 300,000 cells/mL in RPMI media containing 10% FBS. Ezetimibe (100 μM; diluted 1:1000 into media from a 100 mM stock in DMSO; 0.1% final DMSO concentration), free cholesterol (200 μM; diluted 1:10 into media from a 2 mM stock in DMSO; 10% final DMSO concentration to enhance cholesterol solubility) or vehicle control (DMSO) was added in competition experiments. Cell suspensions containing the competitor or vehicle control were prepared as 1 mL aliquots in 1.5 mL eppindorf tubes. Fluorescent probes were added at concentrations from 0 nM to 2500 nM (diluted 1:1000 into media from stocks in DMSO). Once the probe was added and well mixed, the samples were split into three tubes each containing 330 μL. Cells were incubated at 16° C. for 10 min or 37° C. for 5 minutes to limit endocytosis. After this incubation, the samples were washed once with RPMI 1640 containing 0.5% FBS (to minimize efflux of the probe from the cell surface) and propidium iodide (3 μM). Samples were immediately analyzed by flow cytometry or confocal laser-scanning microscopy.
Populations of 10,000 Jurkat cells were analyzed for each sample using an Accuri C6 flow cytometer equipped with 488 nm and 640 nm solid-state lasers. Live cells were gated using both forward scattering (FSC) and side scattering (SSC) dot plots to identify cellular physical properties of size and granularity and propidium iodide to identify cells with compromised membranes. The average cellular fluorescence upon excitation at 488 nm was plotted against probe concentration, and the data analyzed as total binding (no competitor added) and a linear non-specific binding component (with cholesterol or ezetimibe as a specific competitor) to calculate specific binding curves. Using GraphPad Prism 5.0 software, these curves were analyzed with a one site with hill slope binding model to determine the relative apparent Kd and Bmax values listed in Table 1 below.
Using free cholesterol (compound 1, 200 μM, 10% DMSO) as a competitor, we quantified the relative affinities (Kd, app) and efficacies (Bmax) of compounds 4-12 in saturation binding experiments at both 16° C. (to limit endocytosis) and 37° C. (FIG. 4 and Table 1). These experiments confirmed the combined importance the N-alkyl substituent of cholesterylamine, an anionic functional group, and a spacer residue such as β-alanine to engender high affinity binding to cell surfaces and facilitate subsequent endocytosis.

Jurkat lymphocytes = assay: Confocal laser scanning microscopy of living Jurkat lymphocytes treated with fluorescent probes; assay type: cell-based, human; conditions: 2 μM, 10% serum
Experimental: FIG. 3 includes micrographs showing differential interference contrast (DIC) and confocal laser scanning microscopy of living Jurkat lymphocytes in media containing 10% serum treated at 37° C. with fluorescent compound 4 (Panels A-E), compound 6 (F-G), and compound 12 (H-I) for 5 min or 1 h (2 μM). In C and D, ezetimibe (compound 3, 100 μM in 0.1% DMSO) and cholesterol (compound 1, 200 μM in 10% DMSO) were included as competitors to block uptake via cell surface receptors.
An inverted Leica TCS SPE confocal laser-scanning microscope fitted with a Leica 63× oil-immersion objective was employed for imaging. Fluorescent probes were excited with a 488 nm solid-state laser and emitted photons were collected from 495-600 nm. Propidium iodide, used to counterstain dead cells red fluorescent, was excited with a 532 nm solid-state laser and emitted photons were collected from 650-800 nm. To image living cells, 50 μL of cells in media was pipetted to form a small droplet in the center of a coverslip fitted with a press-to-seal silicone isolator (Invitrogen). A microscope slide was added to the top of the coverslip to create a column of media containing living cells. To allow accurate comparisons of differences in cellular fluorescence, laser power and PMT gain settings were identical for all samples.
as §1, with “Once the probe was added and well mixed, the samples were split into three tubes each containing 330 μL. Cells were incubated at 16° C. for 10 min or 37° C. for 5 minutes to limit endocytosis. After this incubation, the samples were washed once with RPMI 1640 containing 0.5% FBS (to minimize efflux of the probe from the cell surface) and propidium iodide (3 μM).” left out

[2] = 37° C., 5 min, read-out: Kd, app (nM, 37° C.)
[3] = 16° C., 10 min, read-out: Kd, app (nM, 16° C.)

Cc1cc(C(=O)N[C@@H](CCC(=O)O)C(=O)N[C@@H](CCC(=O)O)C(=O)NCCCN[C@H]2CC[C@@]3(C)C(=CC[C@H]4[C@@H]5CC[C@H]([C@H](C)CCCC(C)C)[C@@]5(C)CC[C@@H]43)C2)ccc1-c1c2cc(F)c(=O)cc-2oc2cc(O)c(F)cc12 [compound 7, (4S)-5-(((2S)-4-carboxy-1-((3-[3β-cholest-5-en-3-ylamino]propyl)amino)-1-oxobutan-2-yl)amino)-4-(4-(2,7-difluoro-6-hydroxy-3-oxo-3H-xanthen-9-yl)-3-methylbenzamido)-5-oxopentanoic acid]
Bmax (×10^5, 37° C.) ([1]; 37° C., 5 min): 3.2 ± 1.3 ×10^5
Kd [1, 2]: 1540 ± 1140 nM
melting point: 175 to 178 °C

Cc1cc(C(=O)N[C@@H](CCC(=O)O)C(=O)NCC(=O)NCCNC(=O)OC2CC[C@@]3(C)C(=CC[C@H]4[C@@H]5CC[C@H]([C@H](C)CCCC(C)C)[C@@]5(C)CC[C@@H]43)C2)ccc1-c1c2cc(F)c(=O)cc-2oc2cc(O)c(F)cc12 (stereo partly drawn) [compound 12, (4S)-4-(4-(2,7-difluoro-6-hydroxy-3-oxo-3H-xanthen-9-yl)-3-methylbenzamido)-5-(3-((3-((({[3-cholester-3-y]oxy}carbonyl)amino)ethyl)amino)-2-oxoethyl)amino)-5-oxopentanoic acid]
Bmax (×10^5, 16° C.) ([1]; 16° C., 10 min): NC^b (Not calculated due to low efficacy (Bmax<0.4×105))
Bmax (×10^5, 37° C.) ([1]; 37° C., 5 min): NC^b (Not calculated due to low efficacy (Bmax<0.4×105))
cellular binding and cellular uptake compared with compound 4 (Jurkat lymphocytes; 5 min or 1 h, 37° C.): substantially lower cellular binding and cellular uptake compared with compound 4

Cc1cc(C(=O)NCC(=O)NCCC(=O)NCCCN[C@H]2CC[C@@]3(C)C(=CC[C@H]4[C@@H]5CC[C@H]([C@H](C)CCCC(C)C)[C@@]5(C)CC[C@@H]43)C2)ccc1-c1c2cc(F)c(=O)cc-2oc2cc(O)c(F)cc12 [compound 6, N-(2-{[3-({3-[3β-Cholest-5-en-3-ylamino]propyl}amino)-3-oxopropyl]amino}-2-oxoethyl)-4-(2,7-difluoro-6-hydroxy-3-oxo-3H-xanthen-9-yl)-3-methylbenzamide]
Bmax (×10^5, 37° C.) ([1]; 37° C., 5 min): NC^b (Not calculated due to low efficacy (Bmax<0.4×105))
melting point: 200 to 203 °C

Cc1cc(C(=O)N[C@@H](CCC(=O)O)C(=O)NCCC(=O)NCCCN[C@H]2CC[C@@]3(C)C(=CC[C@H]4[C@@H]5CC[C@H]([C@H](C)CCCC(C)C)[C@@]5(C)CC[C@@H]43)C2)ccc1-c1c2cc(F)c(=O)cc-2oc2cc(O)c(F)cc12 [compound 4, (4S)-5-{[3-({3-[3β-Cholest-5-en-3-ylamino]propyl}amino)-3-oxopropyl]amino}-4-{[4-(2,7-difluoro-6-hydroxy-3-oxo-3H-xanthen-9-yl)-3-methylbenzoyl]amino}-5-oxopentanoic acid]
Bmax (×10^5, 16° C.) ([1]; 16° C., 10 min): 2.31 ± 0.14 ×10^5
Kd [1, 3]: 403 ± 49 nM
Bmax (×10^5, 37° C.) ([1]; 37° C., 5 min): 2.54 ± 0.12 ×10^5
Kd [1, 2]: 344 ± 32 nM
binding to mammalian cells (affinity/efficacy, in words) [1]: high affinity/efficacy
fluorescent staining of cells (Jurkat lymphocytes; 5 minutes at 37° C.): robust fluorescent staining of cellular plasma membranes
cellular binding, uptake and localization (Jurkat lymphocytes; after 1 hour, 37° C.): enhanced cellular binding, uptake of the probe, and localization of compound 4 in transferrin-positive early/recycling endosomes

Cc1cc(C(=O)N[C@@H](CCC(=O)O)C(=O)N[C@@H](CCC(=O)O)C(=O)NCCC(=O)NCCCN[C@H]2CC[C@@]3(C)C(=CC[C@H]4[C@@H]5CC[C@H]([C@H](C)CCCC(C)C)[C@@]5(C)CC[C@@H]43)C2)ccc1-c1c2cc(F)c(=O)cc-2oc2cc(O)c(F)cc12 [compound 5, (4S)-5-{[(1S)-3-Carboxy-1-({[3-({3-[3β-cholest-5-en-3-ylamino]propyl}amino)-3-oxopropyl]amino}carbonyl)propyl]amino}-4-{[4-(2,7-difluoro-6-hydroxy-3-oxo-3H-xanthen-9-yl)-3-methylbenzoyl]amino}-5-oxopentanoic acid]
Bmax (×10^5, 16° C.) ([1]; 16° C., 10 min): 3.93 ± 0.64 ×10^5
Kd [1, 3]: 767 ± 244 nM
Bmax (×10^5, 37° C.) ([1]; 37° C., 5 min): 3.01 ± 0.26 ×10^5
Kd [1, 2]: 449 ± 74 nM
binding to mammalian cells (affinity/efficacy, in words) [1]: high affinity/efficacy

Cc1cc(C(=O)N[C@@H](CCC(=O)O)C(=O)NCCC(=O)NCCC(=O)N[C@H]2CC[C@@]3(C)C(=CC[C@H]4[C@@H]5CC[C@H]([C@H](C)CCCC(C)C)[C@@]5(C)CC[C@@H]43)C2)ccc1-c1c2cc(F)c(=O)cc-2oc2cc(O)c(F)cc12 [compound 10, (4S)-4-(4-(2,7-difluoro-6-hydroxy-3-oxo-3H-xanthen-9-yl)-3-methylbenzamido)-5-((3-((3-{[3β-cholest-5-en-3-yl]amino}-3-oxopropyl)amino)-3-oxopropyl)amino)-5-oxopentanoic acid]
Bmax (×10^5, 16° C.) ([1]; 16° C., 10 min): 1.86 ± 0.39 ×10^5
Kd [1, 3]: 786 ± 358 nM
Bmax (×10^5, 37° C.) ([1]; 37° C., 5 min): 2.2 ± 0.30 ×10^5
Kd [1, 2]: 639 ± 190 nM
melting point: 192 to 194 °C

Cc1cc(C(=O)N[C@@H](CCC(=O)O)C(=O)NCCC(=O)NCCCO[C@H]2CC[C@@]3(C)C(=CC[C@H]4[C@@H]5CC[C@H]([C@H](C)CCCC(C)C)[C@@]5(C)CC[C@@H]43)C2)ccc1-c1c2cc(F)c(=O)cc-2oc2cc(O)c(F)cc12 [compound 9, (4S)-5-{[3-({3-[3β-Cholest-5-en-3-yloxy]propyl}amino)-3-oxopropyl]amino}-4-{[4-(2,7-difluoro-6-hydroxy-3-oxo-3H-xanthen-9-yl)-3-methylbenzoyl]amino}-5-oxopentanoic acid]
Bmax (×10^5, 16° C.) ([1]; 16° C., 10 min): 1.68 ± 0.26 ×10^5
Kd [1, 3]: 954 ± 285 nM
melting point: 192 to 194 °C

Cc1cc(C(=O)N[C@@H](CCC(=O)O)C(=O)NCCC(=O)NCCC(=O)OC2CC[C@@]3(C)C(=CC[C@H]4[C@@H]5CC[C@H]([C@H](C)CCCC(C)C)[C@@]5(C)CC[C@@H]43)C2)ccc1-c1c2cc(F)c(=O)cc-2oc2cc(O)c(F)cc12 (stereo partly drawn) [compound 11, (4S)-4-(4-(2,7-difluoro-6-hydroxy-3-oxo-3H-xanthen-9-yl)-3-methylbenzamido)-5-((3-((3-{[3-cholester-3-yl]oxy}3-oxopropyl)amino)-3-oxopropyl)amino)-5-oxopentanoic acid]
Bmax (×10^5, 16° C.) ([1]; 16° C., 10 min): NC^b (Not calculated due to low efficacy (Bmax<0.4×105))
Bmax (×10^5, 37° C.) ([1]; 37° C., 5 min): NC^b (Not calculated due to low efficacy (Bmax<0.4×105))

CC[C@H](CC[C@@H](C)[C@H]1CC[C@H]2[C@@H]3CC=C4C[C@@H](NCCCNC(=O)CCNC(=O)[C@H](CCC(=O)O)NC(=O)c5ccc(-c6c7cc(F)c(=O)cc-7oc7cc(O)c(F)cc67)c(C)c5)CC[C@]4(C)[C@H]3CC[C@]12C)C(C)C [compound 8, (4S)-5-{[3-({3-[3β-Sitost-5-en-3-ylamino]propyl}amino)-3-oxopropyl]amino}-4-{[4-(2,7-difluoro-6-hydroxy-3-oxo-3H-xanthen-9-yl)-3-methylbenzoyl]amino}-5-oxopentanoic acid]
Bmax (×10^5, 16° C.) ([1]; 16° C., 10 min): 0.73 ± 0.03 ×10^5
Kd [1, 3]: 286 ± 27 nM
Bmax (×10^5, 37° C.) ([1]; 37° C., 5 min): 1.3 ± 0.29 ×10^5
Kd [1, 2]: 435 ± 221 nM
